One compound from patent US20020034725A1, “SENSITIZATION OF CELLS TO RADIATION AND AND CHEMOTHERAPY” (priority 1996, published 2002) can be followed below.

One test relates to H-ras^v12. Briefly: Western blot of H-ras farnesylation in H-ras transformed REF cells (3.7, 4R, 5R). Format: cell-based, rat. An excerpt:
(§1) The oncogene-transfected cells used in this study were all derived from early passage rat embryo fibroblast (REF) by transfection with the pEJ plasmid containing the H-ras gene isolated from the EJ bladder carcinoma. This vector was introduced by calcium phosphate DNA transfer into primary REF, either alone or together with the pMC29 vector containing v-myc. One clone containing both the introduced H-ras gene and the v-myc genes is 3.7 (McKenna et al., 1990, Cancer Res. 50:97-102). 4R and 5R cells were obtained as rare transformants after transfection with the pEJ plasmid alone (McKenna et al., 1993, supra). MR4 cells were immortalized by transfection with an expression vector comprising v-myc linked to a neomycin-resistant selectable marker (McKenna et al., 1991, Radiat. Res. 125:283-287). REF-GG cells were obtained by transforming REF cells with a chimeric H-ras(v12) in which the CAAX motif is CVLL. All cell lines were mycoplasma free.
Cells were lysed in culture dishes with 1 x reducing Laemmli sample buffer. Samples were boiled, sheared and clarified by centrifugation at 14,000 rpm in a microfuge before storage at −20° C. Samples containing equal amounts of protein were separated on a 12% SDS polyacrylamide gel and electrophoretically transferred to nitrocellulose membranes. Membranes were blocked for 1-2 hours in PBS containing 0.1% Tween-20 and 5% powdered milk before antibody addition. Membranes were probed with monoclonal pan-ras antibody AB-4 (Oncogene Science, Uniondale, N.Y.) at a concentration of 0.5 μg/ml, or with monoclonal H-ras antibody LA069 (1:5000 dilution; Quality Biotech, Camden, N.J.). Detection of protein was accomplished using the ECL chemiluminescence kit (Amersham, Arlington Heights, Ill.). Images were digitized using an Arcus II scanner, and figures were assembled using Adobe Photoshop 3.0.
Transformed REF cells derived from the R5 cell line were treated with 5 μm FTI-277 to establish a time course for the accumulation of unfarnesylated H-ras. Prenylated forms of ras migrate more rapidly than unprenylated ras on SDSpolyacrylamide gels (Gutierrez et al., 1989, EMBO J. 8:1093-1098; Farh et al., 1995, Arch. Biochem. Biophys. 18:113-121). This shift in motility was used to assess the prenylation status of H-ras after farnesyltransferase inhibitor treatment.

The next test deals with H-ras^v12 CVLL. Briefly: Western blot of prenylation of chimeric H-ras in REF-GG cells. The note with it: up to 10 μM. Format: cell-based, rat.
Text: as §1
Cells were lysed in culture dishes with 1 x reducing Laemmli sample buffer. Samples were boiled, sheared and clarified by centrifugation at 14,000 rpm in a microfuge before storage at −20° C. Samples containing equal amounts of protein were separated on a 12% SDS polyacrylamide gel and electrophoretically transferred to nitrocellulose membranes. […]
A general note: Immunoblotting shows a protein as a band on a membrane.

The test system of the next test is REF-GG cells. Briefly: SF2 by limiting dilution analysis of clonogens. Format: cell-based, rat. Conditions: 5 μM FTI-277. Here is the method:
FIG. 14B comprises two graphs depicting clonogenic survival of REF-GG cells following treatment with GGTI-298 and irradiation. REF-GG cells were plated at 1 to 5 cells per well in microtiter plates in the absence (top panel) or presence (bottom panel) of 8 μM of the geranylgeranyltransferase inhibitor, GGTI-298. Cells were then irradiated with 2 Gray or were mock irradiated. Cells were re-fed after 24 hours with medium that contained no inhibitor, thus diluting the inhibitor to 0.8 μM. These cells were then incubated for two weeks prior to scoring for colony formation. The data are presented as the natural log of the fraction of negative wells. The surviving fraction at 2 Gray was determined from the differences in the slopes obtained by linear regression of analysis of irradiated and unirradiated cells. The surviving fraction at 2 Gray calculated for cells irradiated after GGTI-298 treatment was 0.64. Control cell surviving fraction after 2 Gray was 0.91. The correlation coefficient for linear regression analysis (r^2) was greater than 0.95 in all cases.
Cells were irradiated with the indicated doses of ionizing radiation and were treated with FTI-277 for 24 hours after irradiation (FIG. 14A). […] The shoulders of the survival curves were reduced as were the overall slopes of the survival curves. […]

The next test concerns 3.7 and 5R cells. As to the kind of experiment: Cell growth after FTI-277 treatment. In kind it is cell-based, rat. Here is the method:
FIG. 15A is a graph depicting growth of primary REF cells (circles) and 3.7 cells (squares) after FTI-277 treatment. Two×10^5 cells were plated in medium containing 2.5 μM (3.7 cells) or 5 μM (REF cells) of FTI-277. […] Cells were harvested from replicate dishes at one day intervals and counted using a hemocytometer to determine the total cell number in each culture. Open symbols: DMSO (drug carrier) treated cells; closed symbols: FTI-277 treated cells.
FIG. 15B is a graph depicting growth of MR4 cells (circles) and 5R cells (squares) following treatment with FTI-277 treatment. Three×10^5 cells were plated in medium containing 5 μM FTI-277. Cells were harvested from replicate dishes at one day intervals and counted using a hemocytometer to determine the total cell number in each culture. Open symbols: DMSO (drug carrier) treated cells; closed symbols: 5 μM FTI-277 treated cells.

In a further test the test system is H-ras. Briefly: H-ras prenylation in human colon carcinomas grown in nude mice. In kind it is in vivo, mouse. Conditions: SW480 and LoVo tumors in nude mice, two intraperitoneal injections of 50 mg/kg. Here is the method:
Expression of H-ras was detected by Western blot analysis using anti-H-ras monoclonal antibody of lysates of the human colon adenocarcinomas, SW480 and LoVo, grown in nude mice. Lysates were obtained from tumors excised from a vehicle (DMSO) treated mouse (Lane 1) and mice treated twice with intraperitoneal injections of 50 mg/kg of FTI-277 18 hours after treatment was initiated (Lanes 2 and 3). Lane 1 and 2: SW480, Lane 3: LoVo. The arrow denotes the migration of unfarnesylated H-ras.
To examine the effectiveness of prenylation inhibitors in vivo in an animals, both rodent and human tumor responses to these inhibitors were examined in tumor grafts growing on nude mice. The protocols described in Hoffinan (1992, Curr, Perspect. on Molec. & Cell. Oncol. 1:311-326) were followed to establish and grow tumors in nude mice.
To perform the assay, tumors were implanted and allowed to grow to approximately 125 mm^3. Mice having these tumors were then administered 50 mg/kg FTI-277 by intraperitoneal injection. Controls included mice which were injected with an equal volume of drug-free carrier solution. Two injections were given to each mouse, one at 18 hours and a second at 5 hours prior to sacrificing each mouse. The tumor ras prenylation status of the mice was subsequently assessed as described herein.

The structures appear in SMILES notation.

As for `COC(=O)[C@H](CCSC)NC(=O)c1ccc(NC[C@@H](N)CS)cc1-c1ccccc1` [FTI-277], in the test on H-ras^v12 (3.7, 4R and 5R cells, 2.5 to 10 μm, 24 hours), the H-ras farnesylation status result is reported as “primarily unfarnesylated”. The “time by which detectable farnesylated H-ras was observed after removal of inhibitor” value in the test on H-ras^v12 (3.7 cells, 5 μm for 30 hours, then removed) was at most 2 h. Moreover, the “H-ras in the farnesylated form after removal of inhibitor” value in the test with H-ras^v12 (3.7 cells, 6 hours after removal) is given as “about 50%”. Besides, in the test with H-ras^v12 (3.7 cells, 24 hours after removal), the “form of H-ras after removal of inhibitor” value is reported as “majority of the H-ras in the cells was in the farnesylated form”. In the test with H-ras^v12 (5R cells, 5 μm FTI-277), the “time by which conversion of H-ras to the slower moving form was observed” value was at most 4 h. For the same compound, the “detectable H-ras in the unfarnesylated form” value with H-ras^v12 (5R cells, 5 μm FTI-277, 6-8 hours after addition) is recorded as “approximately 50%”. Further, the “time to reversal of accumulation of unfarnesylated H-ras after removal of inhibitor” value with H-ras^v12 (H-ras transformed REF cells) is at most 24 h. The “mobility of H-ras-CVLL” value in the test on H-ras^v12 CVLL was “no change in the mobility of H-ras-CVLL”. In addition, in the test on REF-GG cells, the “SF2 (surviving fraction at 2 Gray)” value was found to be 0.81. Further, the cell growth entry in the test on 3.7 and 5R cells (3.7 cells, conditions of radiation survival experiments) is reported as “some inhibition of cell growth”; with 3.7 and 5R cells (5R cells, 5 μM), “more resistant to growth inhibition”. Moreover, the “increase in cell number” value in the test on 3.7 and 5R cells (3.7 cells, day 4 after drug treatment) is “fifty-fold increase in cell number”. In addition, in the test on H-ras, the “H-ras migration in tumors” value was “altered H-ras migration”.
